Laboratory results: patent US20260041653A1, “AN HDAC INHIBITOR FOR TREATING CANCER WITH A MODIFIED STK11 ACTIVITY OR EXPRESSION” (Tango Therapeutics, Inc., priority 2022, published 2026)

Legend:
HDAC1 = molecular target: T1, HDAC1 (Homo sapiens, UniProt Q13547); test: Cellular NanoBRET target engagement assay, HDAC1; format: cell-based; conditions: in intact cells
T1 construct: expressed in transfected cells

[1] = Tolerated and efficacious dose ranges in vivo
Experimental: Briefly, a colony forming unit assay was performed in vitro to evaluate the impact of HDAC inhibitors on the viability of erythroid and myeloid cells. Cells were treated with a dose response of each compound for 14 days. Cell colonies were quantified at the end of the experiment and compared to a solvent control. The efficacious dose range of Compound I was also plotted (the range was between 3 mg/kg and 75 mg/kg) (FIG. 12A). The IC50s for each compound were calculated from the erythroid and myeloid colony formation unit assay. These IC50s were normalized to the compound's potency against HDAC1 in the cellular NanoBRET assay to allow for head-to-head compound comparison (Table 4-1).
Compound I concentrations to HDAC1 or HDAC3 inhibition in vivo were plotted in FIG. 12D. Shaded boxes indicate tolerated and efficacious dose ranges of Compound I. Non-tolerated exposures were over 150 mg/kg.

CYP2C9 = CYP2C9 (Homo sapiens, UniProt P11712); test: Metabolism by recombinant human CYP2C9; format: in vitro ADME; conditions: read-out: terminal half life (T1/2), rh CYP2C9
Experimental: (§1) Drug metabolizing enzymes involved in the biotransformation of Compound I were investigated using human liver microsomes (HLM) and recombinant enzymes. Compound I was stable in HLMs (>93% remaining after 240 minutes of incubation with HLM protein concentration at 0.6 mg/ml). CYP selective inhibitor experiments were not performed due to lack of appreciable Compound I turnover.

CYP3A4/5 = test: Metabolism by recombinant human CYP3A4/5; format: in vitro ADME; conditions: read-out: terminal half life (T1/2), rh CYP3A4/5
Experimental: as §1

logD7.4 = format: physicochemical; conditions: pH 7.4
[2] = PK/PD study, plasma concentrations in MC38 tumor-bearing mice; format: in vivo, C57BL/6 mice; conditions: for free unbound exposure in plasma: based on 10.05% free fraction
Experimental: In a separate PK/PD study, MC38 tumor-bearing female C57BL/6 mice (12/group) were assigned to treatment groups with similar mean tumor volumes of approximately 430 mm^3 and treated with vehicle (5% N,N-dimethylacetamide [DMA]+30% polyethylene glycol [PEG] 400+65% of 30% 2-hydroxypropyl-beta-cyclodextrin [HP-β-CD] in water) or Compound I at 30, 100, and 300 mg/kg once daily (QD) for 2 days. […] Peripheral blood mononuclear cells (PBMC) and tumor samples were harvested at 2, 8, and 24 hours after last dose. The PBMC samples were processed for determination of mean florescent level of acetyl-histone H2B by flow cytometry. Tumor samples were processed for determination of protein levels of acetyl-histone H3 by Western blot.

[3] = PK/PD study, body weight and clinical signs; format: in vivo, C57BL/6 mice; conditions: 30, 100, 300 mg/kg QD for 2 days
Experimental: In a separate PK/PD study, MC38 tumor-bearing female C57BL/6 mice (12/group) were assigned to treatment groups with similar mean tumor volumes of approximately 430 mm^3 and treated with vehicle (5% N,N-dimethylacetamide [DMA]+30% polyethylene glycol [PEG] 400+65% of 30% 2-hydroxypropyl-beta-cyclodextrin [HP-β-CD] in water) or Compound I at 30, 100, and 300 mg/kg once daily (QD) for 2 days. Plasma samples were collected at 1, 2, 8 and 24 hours after last dose and analyzed for Compound I concentrations. Peripheral blood mononuclear cells (PBMC) and tumor samples were harvested at 2, 8, and 24 hours after last dose. The PBMC samples were processed for determination of mean florescent level of acetyl-histone H2B by flow cytometry. Tumor samples were processed for determination of protein levels of acetyl-histone H3 by Western blot.

[4] = 30, 100, 300 mg/kg QD for 2 days

T1 sequence (Q13547 whole entry): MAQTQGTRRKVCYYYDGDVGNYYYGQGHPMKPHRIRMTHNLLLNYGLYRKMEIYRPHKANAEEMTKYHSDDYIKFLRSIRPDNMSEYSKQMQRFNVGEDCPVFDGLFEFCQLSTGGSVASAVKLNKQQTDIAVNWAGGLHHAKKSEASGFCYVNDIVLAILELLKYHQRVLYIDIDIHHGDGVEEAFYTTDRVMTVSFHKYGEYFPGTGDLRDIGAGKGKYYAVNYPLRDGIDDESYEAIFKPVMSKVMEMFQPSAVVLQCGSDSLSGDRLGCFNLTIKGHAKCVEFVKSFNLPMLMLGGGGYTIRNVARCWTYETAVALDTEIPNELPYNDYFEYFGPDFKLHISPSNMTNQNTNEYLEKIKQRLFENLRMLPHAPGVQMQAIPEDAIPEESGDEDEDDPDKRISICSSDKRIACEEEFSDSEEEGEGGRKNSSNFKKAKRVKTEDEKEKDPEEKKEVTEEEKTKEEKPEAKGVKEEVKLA
CYP2C9, sequence (P11712 whole entry): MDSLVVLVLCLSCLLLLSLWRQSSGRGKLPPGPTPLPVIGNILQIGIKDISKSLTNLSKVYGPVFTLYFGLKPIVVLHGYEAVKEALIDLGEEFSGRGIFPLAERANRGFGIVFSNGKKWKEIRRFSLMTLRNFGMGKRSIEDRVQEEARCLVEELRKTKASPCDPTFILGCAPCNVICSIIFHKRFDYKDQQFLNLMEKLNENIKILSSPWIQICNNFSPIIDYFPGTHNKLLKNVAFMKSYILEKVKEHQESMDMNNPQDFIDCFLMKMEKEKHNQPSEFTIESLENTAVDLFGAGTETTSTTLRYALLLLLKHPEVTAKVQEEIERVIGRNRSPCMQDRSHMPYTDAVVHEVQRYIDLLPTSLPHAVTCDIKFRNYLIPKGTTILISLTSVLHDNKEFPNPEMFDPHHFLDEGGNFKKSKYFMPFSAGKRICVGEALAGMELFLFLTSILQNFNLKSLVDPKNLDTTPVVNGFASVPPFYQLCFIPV

C[S@@](=N)(=O)c1ccc(C(=O)Nc2cc(-c3ccc(F)cc3)ccc2N)cc1 [Compound I, (R)—N-(4-amino-4′-fluoro-[1,1′-biphenyl]-3-yl)-4-(S-methylsulfonimidoyl)benzamide]
selectivity for HDAC1 compared to HDAC3 (HDAC1): > 10 fold | Non-tolerated exposures [1]: over 150 mg/kg | half-life (CYP2C9): > 1 h | half-life (CYP3A4/5): > 1 h | logD7.4 (logD7.4): 1.9 | free unbound exposure in plasma ([2]; 30 mg/kg QD for 2 days): 5470 ng·h/mL | free unbound exposure in plasma ([2]; 100 mg/kg QD for 2 days): 17238 ng·h/mL | free unbound exposure in plasma ([2]; 300 mg/kg QD for 2 days): 69665 ng·h/mL | plasma concentrations versus dose [2, 4]: dose proportional | time of maximal plasma concentrations after the last dose [2, 4]: 1 h | body weight loss and clinical signs [3]: No obvious body weight loss of more than 5% or adverse clinical signs
